Test results taken from PMC11912475 (Journal of Medicinal Chemistry, 2025).
Like-named read-outs stand apart in the source and are kept apart here.

Key:
Assay type in all cases: cell-based
[1] = target: GluN1-GluN2A NMDAR subtype (Homo sapiens, UniProt Q05586+Q12879); assay: FLIPR/Ca2+ assay, NMDAR GluN1-GluN2A subtype in CHO cells
Description: (§1) These compounds were assessed for their effects on specific heterodimeric NMDAR subtypes stably overexpressed in Chinese Hamster Ovary (CHO) cells. The subtypes tested included GluN1-GluN2A, GluN1-GluN2B, GluN1-GluN2C, and GluN1-GluN2D. CHO cells expressing each of the four NMDAR subtypes were incubated with 10 μM L-glutamate, a concentration known to elicit maximal Ca^2+ influx, serving as the stimulus. Intracellular Ca^2+ levels were subsequently measured to determine the extent of NMDAR activation.
(§2) Assay buffer composition was 145 mM NaCl, 5 mM KCl, 2 mM CaCl2, 1 g/Liter D-(+)-glucose, and 20 mM HEPES (pH 7.3 adjusted with NaOH). Cells were plated at a density of 15.000/well in 384 black/clear bottom plates. […] Cells were kept at 30 °C in 5% CO2 incubator for 24 h. Cells were preloaded for 1 h with 2 μM Fluo-4 Ca^2+-sensitive probe, simultaneously with 2.5 mM probenecid, an inhibitor of nonspecific anion transport, and 500 μM ketamine to avoid cytotoxicity. […] Intracellular Ca^2+ level was monitored by FLIPR (excitation wavelength at 470–495 nm, emission wavelength at 515–575 nm) for 10 s before and 5 min after the addition of test items. All test items, including L-glutamate and glycine, were added simultaneously. […] FLIPR data were normalized as 100%, in the presence of 10 μM L-glutamate and 10 μM glycine, while as 0%, in the presence of assay buffer. […] Then, data were normalized by Excel 2013 (Microsoft Office) software, using wells added with 10 μM L-glutamate plus 10 μM glycine (column 23) as high control, and wells added with assay buffer only (column 24) as low control. To assess plate quality, Z′ calculations were performed in Excel. Z′ was calculated according to following equation: Z′ = 1–3(σh + σl)/|μh – μL| where μ and σ are the means and the standard deviations of the means of high (h) and low (l) controls, respectively. Compound concentration–response curves were plotted by Prism 8 GraphPad software, in the different experimental conditions (see Supporting Information). Data were analyzed using least-squares regression fitting, to fit data to a standard four parameters logistic equation using GraphPad Prism10. This regression fitting allowed the calculation of pIC50 and the corresponding SEM.

[2] = target: T1, GluN1-GluN2B NMDAR subtype (Homo sapiens, UniProt Q05586+Q13224); assay: FLIPR/Ca2+ assay, NMDAR GluN1-GluN2B subtype in CHO cells
T1 construct: host or cells: NR1-2B-CHO cells, constitutive expression
Description: as §1, §2

[3] = target: GluN1-GluN2C NMDAR subtype (Homo sapiens, UniProt Q05586+Q14957); assay: FLIPR/Ca2+ assay, NMDAR GluN1-GluN2C subtype in CHO cells
Description: as §1, §2

[4] = target: GluN1-GluN2D NMDAR subtype (Homo sapiens, UniProt O15399+Q05586); assay: FLIPR/Ca2+ assay, NMDAR GluN1-GluN2D subtype in CHO cells
Description: as §1, §2

[5] = CHO cells, 10 μM L-glutamate and 10 μM glycine, n.d. = 50% of inhibition could not be reached at the highest concentration used

Sequence of GluN1-GluN2C NMDAR subtype (Q14957 20-1233, other chains not shown): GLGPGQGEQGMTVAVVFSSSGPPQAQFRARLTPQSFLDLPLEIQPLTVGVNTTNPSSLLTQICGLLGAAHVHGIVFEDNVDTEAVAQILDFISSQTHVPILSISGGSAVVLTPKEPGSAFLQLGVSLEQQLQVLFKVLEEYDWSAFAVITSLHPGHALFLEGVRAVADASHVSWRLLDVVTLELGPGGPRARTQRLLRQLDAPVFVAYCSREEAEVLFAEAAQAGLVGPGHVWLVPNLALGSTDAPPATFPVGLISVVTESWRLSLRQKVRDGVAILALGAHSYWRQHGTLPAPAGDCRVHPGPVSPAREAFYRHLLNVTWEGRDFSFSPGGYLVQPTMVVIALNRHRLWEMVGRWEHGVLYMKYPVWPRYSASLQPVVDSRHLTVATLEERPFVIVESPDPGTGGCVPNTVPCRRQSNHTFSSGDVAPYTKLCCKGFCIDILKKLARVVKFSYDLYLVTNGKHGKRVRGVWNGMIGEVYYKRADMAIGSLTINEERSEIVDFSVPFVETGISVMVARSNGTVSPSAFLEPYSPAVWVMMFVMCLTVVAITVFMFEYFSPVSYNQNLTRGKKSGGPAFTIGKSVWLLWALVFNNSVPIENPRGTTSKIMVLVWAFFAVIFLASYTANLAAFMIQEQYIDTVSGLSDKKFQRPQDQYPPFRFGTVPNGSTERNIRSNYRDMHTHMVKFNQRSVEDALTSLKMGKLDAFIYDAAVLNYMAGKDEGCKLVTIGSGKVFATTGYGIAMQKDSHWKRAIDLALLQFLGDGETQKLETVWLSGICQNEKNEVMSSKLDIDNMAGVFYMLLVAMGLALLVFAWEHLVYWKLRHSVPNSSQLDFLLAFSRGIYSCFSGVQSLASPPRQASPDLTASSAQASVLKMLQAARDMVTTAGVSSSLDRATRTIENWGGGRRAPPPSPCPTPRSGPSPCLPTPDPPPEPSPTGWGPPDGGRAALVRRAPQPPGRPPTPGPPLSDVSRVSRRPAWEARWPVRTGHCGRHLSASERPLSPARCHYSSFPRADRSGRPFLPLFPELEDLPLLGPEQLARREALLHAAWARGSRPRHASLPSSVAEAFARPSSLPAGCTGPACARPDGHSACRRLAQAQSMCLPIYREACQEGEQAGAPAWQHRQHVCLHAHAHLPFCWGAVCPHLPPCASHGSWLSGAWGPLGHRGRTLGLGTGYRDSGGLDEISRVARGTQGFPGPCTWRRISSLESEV
Sequence of GluN1-GluN2A NMDAR subtype (Q12879 23-1464, other chains not shown): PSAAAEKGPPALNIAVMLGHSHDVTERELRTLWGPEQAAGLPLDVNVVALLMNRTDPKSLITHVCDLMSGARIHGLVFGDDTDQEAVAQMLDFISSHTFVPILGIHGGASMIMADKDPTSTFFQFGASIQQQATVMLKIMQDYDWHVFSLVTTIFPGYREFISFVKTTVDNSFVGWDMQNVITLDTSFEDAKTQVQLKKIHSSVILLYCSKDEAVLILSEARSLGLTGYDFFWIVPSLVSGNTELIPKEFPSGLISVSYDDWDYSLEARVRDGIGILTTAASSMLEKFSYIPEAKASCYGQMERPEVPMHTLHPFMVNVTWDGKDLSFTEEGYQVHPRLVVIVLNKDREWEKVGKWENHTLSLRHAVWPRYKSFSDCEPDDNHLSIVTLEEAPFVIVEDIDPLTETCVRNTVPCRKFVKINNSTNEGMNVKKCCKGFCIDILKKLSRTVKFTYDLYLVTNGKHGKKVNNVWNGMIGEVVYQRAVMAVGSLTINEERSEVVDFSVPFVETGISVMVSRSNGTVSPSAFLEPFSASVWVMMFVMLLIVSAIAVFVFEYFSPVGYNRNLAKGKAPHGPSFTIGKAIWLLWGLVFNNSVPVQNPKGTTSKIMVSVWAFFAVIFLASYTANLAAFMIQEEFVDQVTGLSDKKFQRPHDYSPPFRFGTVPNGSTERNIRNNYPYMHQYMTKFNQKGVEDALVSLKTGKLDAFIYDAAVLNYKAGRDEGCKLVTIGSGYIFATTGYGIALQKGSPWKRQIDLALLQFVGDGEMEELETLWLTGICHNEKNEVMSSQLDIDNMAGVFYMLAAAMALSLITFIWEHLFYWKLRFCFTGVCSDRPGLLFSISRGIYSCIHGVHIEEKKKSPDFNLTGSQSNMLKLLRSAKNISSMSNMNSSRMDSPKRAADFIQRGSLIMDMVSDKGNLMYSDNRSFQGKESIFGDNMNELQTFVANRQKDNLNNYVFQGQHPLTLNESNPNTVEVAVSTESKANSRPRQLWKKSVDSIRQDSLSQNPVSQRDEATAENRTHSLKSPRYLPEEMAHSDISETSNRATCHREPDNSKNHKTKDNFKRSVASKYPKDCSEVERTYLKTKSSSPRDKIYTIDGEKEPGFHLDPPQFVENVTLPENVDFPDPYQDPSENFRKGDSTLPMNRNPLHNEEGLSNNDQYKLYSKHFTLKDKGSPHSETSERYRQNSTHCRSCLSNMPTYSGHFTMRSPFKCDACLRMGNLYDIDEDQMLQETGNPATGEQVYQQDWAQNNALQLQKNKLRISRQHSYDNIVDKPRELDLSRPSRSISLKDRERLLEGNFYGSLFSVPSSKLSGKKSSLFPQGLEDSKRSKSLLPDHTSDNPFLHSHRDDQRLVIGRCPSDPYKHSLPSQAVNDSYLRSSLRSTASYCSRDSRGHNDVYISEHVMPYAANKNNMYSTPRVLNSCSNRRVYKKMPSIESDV
Sequence of GluN1-GluN2D NMDAR subtype (O15399 28-1336, other chains not shown): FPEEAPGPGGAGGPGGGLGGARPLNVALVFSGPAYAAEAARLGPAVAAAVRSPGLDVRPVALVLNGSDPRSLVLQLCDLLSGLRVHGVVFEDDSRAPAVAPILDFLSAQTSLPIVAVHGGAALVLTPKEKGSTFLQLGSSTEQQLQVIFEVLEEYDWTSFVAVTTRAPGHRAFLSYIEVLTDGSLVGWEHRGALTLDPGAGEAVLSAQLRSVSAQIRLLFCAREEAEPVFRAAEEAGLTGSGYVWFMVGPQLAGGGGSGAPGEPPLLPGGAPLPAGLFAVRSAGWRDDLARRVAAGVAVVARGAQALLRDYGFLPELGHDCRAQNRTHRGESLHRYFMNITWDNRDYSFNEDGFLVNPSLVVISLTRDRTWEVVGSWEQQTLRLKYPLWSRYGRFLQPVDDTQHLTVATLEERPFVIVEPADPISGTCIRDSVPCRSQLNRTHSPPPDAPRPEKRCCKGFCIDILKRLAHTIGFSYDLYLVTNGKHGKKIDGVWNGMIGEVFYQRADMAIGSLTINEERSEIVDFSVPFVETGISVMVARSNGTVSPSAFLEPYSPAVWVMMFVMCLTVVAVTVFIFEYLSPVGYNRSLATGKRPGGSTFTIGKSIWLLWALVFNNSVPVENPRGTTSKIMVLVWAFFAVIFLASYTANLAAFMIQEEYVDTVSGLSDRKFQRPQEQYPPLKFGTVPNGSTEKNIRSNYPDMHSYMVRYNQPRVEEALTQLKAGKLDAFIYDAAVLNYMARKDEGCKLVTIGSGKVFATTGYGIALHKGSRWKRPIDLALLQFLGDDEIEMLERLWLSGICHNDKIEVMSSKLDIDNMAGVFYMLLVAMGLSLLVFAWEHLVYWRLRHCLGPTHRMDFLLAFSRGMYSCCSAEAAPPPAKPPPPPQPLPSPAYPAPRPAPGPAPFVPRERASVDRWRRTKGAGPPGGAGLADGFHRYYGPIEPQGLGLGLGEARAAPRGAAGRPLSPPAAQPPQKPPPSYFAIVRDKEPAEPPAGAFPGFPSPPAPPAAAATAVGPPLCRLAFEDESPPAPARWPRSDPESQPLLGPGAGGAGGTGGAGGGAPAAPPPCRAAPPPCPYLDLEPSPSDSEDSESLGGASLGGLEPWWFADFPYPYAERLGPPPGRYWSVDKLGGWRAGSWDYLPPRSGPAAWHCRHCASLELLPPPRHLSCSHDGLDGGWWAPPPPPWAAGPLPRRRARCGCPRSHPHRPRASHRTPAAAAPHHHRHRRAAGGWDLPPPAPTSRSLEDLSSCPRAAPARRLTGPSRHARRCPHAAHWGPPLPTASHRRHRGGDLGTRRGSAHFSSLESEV

SMILES	pIC50 (mean ± SEM) GluN1-GluN2A [1, 5]	pIC50 (mean ± SEM) GluN1-GluN2B [2, 5]	pIC50 (mean ± SEM) GluN1-GluN2C [3, 5]	pIC50 (mean ± SEM) GluN1-GluN2D [4, 5]	further results
C[C@H]1CC(c2ccccc2)(c2ccccc2)C(=O)N1C [(S)-DDPO, 1,5-Dimethyl-3,3-diphenylpyrrolidin-2-one]	–	–	–	–	IC50 ([1]; CHO cells, 10 μM L-glutamate and 10 μM glycine, n.d. = 50% of inhibition could not be reached at the highest concentration used, read-out: pIC50 (mean ± SEM) GluN1-GluN2A (converted)): > 100 µM; IC50 ([2]; CHO cells, 10 μM L-glutamate and 10 μM glycine, n.d. = 50% of inhibition could not be reached at the highest concentration used, read-out: pIC50 (mean ± SEM) GluN1-GluN2B (converted)): > 100 µM; IC50 ([3]; CHO cells, 10 μM L-glutamate and 10 μM glycine, n.d. = 50% of inhibition could not be reached at the highest concentration used, read-out: pIC50 (mean ± SEM) GluN1-GluN2C (converted)): > 100 µM; IC50 ([4]; CHO cells, 10 μM L-glutamate and 10 μM glycine, n.d. = 50% of inhibition could not be reached at the highest concentration used, read-out: pIC50 (mean ± SEM) GluN1-GluN2D (converted)): > 100 µM
CCC1=[N+](C)[C@@H](C)CC1(c1ccccc1)c1ccccc1 [(S)-EDDP, 2-Ethyl-1,5-dimethyl-3,3-diphenyl-3,4-dihydro-5H-pyrrolium chloride]	–	–	–	–	IC50 [1]: > 100 µM; IC50 [2]: > 100 µM; IC50 [3]: > 100 µM; IC50 [4]: > 100 µM
CNC1(c2ccccc2Cl)CCCCC1=O (racemic) [(±)-ketamine, reference compound]	4.6 ± 0.028	5.2 ± 0.037	5.4 ± 0.069	5.0 ± 0.087	–
COc1ccc2c(c1)[C@]13CCCC[C@@H]1[C@H](C2)N(C)CC3 [dextromethorphan, reference compound]	4.3 ± 0.029	4.8 ± 0.037	5.2 ± 0.057	4.6 ± 0.12	–
